In US7125844B2, “Dab9 derivatives of lipopeptide antibiotics and methods of making and using the same” (priority 2002, dated 2006):

Tested on: methicillin sensitive Staphylococcus aureus (MSSA; Smith strain)
Assay: Mouse protection model: mice infected intraperitoneally with MSSA, dosed subcutaneously
Type: in vivo
Settings: for Number Dead: 10 mice
Experimental: An overnight culture of methicillin sensitive Staphylococcus aureus (“MSSA”; Smith strain) grown to stationary phase in brain heart infusion broth (BHI) was diluted 1000-fold and maintained at 37° C. in a shaking incubator. Approximately two hours later the culture was centrifuged and the pellet was washed with sterile phosphate-buffered saline (“PBS”). The washed pellet was then reconstituted in Mueller-Hinton Broth (“MHB”) to achieve the desired density of bacteria. A portion of the inoculum was plated on blood agar plates to determine colony-forming units (CFU) per milliliter.
Compound IB-1272 was formulated immediately before dosing in aqueous vehicle containing 5% dextrose. Compound IB-756 (Aspartocin) was formulated in PBS or 5% dextrose and used as a positive control.
Immunocompetent Swiss Webster Mice from Simonsen Laboratories, Gilroy, Calif., received via intraperitoneal injection a single inoculum (0.5 ml) containing an estimated 4.0×10^7 CFU of MSSA Smith strain. The day of inoculation was designated study day 0. Immediately after infection, mice were treated subcutaneously with a single dose of vehicle alone, IB-1272 (2, 4, or 8 mg/kg), IB-756 (2.5 or 5 mg/kg in PBS), or IB-756 (2.5 or 5 mg/kg in 5% dextrose).

[1] = 2.0 mg/kg s.c. single dose (5% dextrose vehicle)
[2] = 4 mg/kg s.c. single dose (5% dextrose vehicle)
[3] = 8 mg/kg s.c. single dose (5% dextrose vehicle)
[4] = Table 1, no unit or model given

CC(C)CCCCCCCC/C=C\CC(=O)N[C@@H](CC(=O)O)C(=O)N[C@@H]1C(=O)N2CCCC[C@@H]2C(=O)N[C@@H]([C@H](C)C(=O)O)C(=O)N[C@@H](CC(=O)O)C(=O)NCC(=O)N[C@@H](CC(=O)O)C(=O)NCC(=O)N[C@H]([C@@H](C)NC(=O)CN)C(=O)N[C@@H](C(C)C)C(=O)N2CCC[C@H]2C(=O)N[C@@H]1C [IB-1272, NatC15-aspartocin(Dab^9-N-glycyl)]
Percent Mortality [1]: 50%
Percent Survival [1]: 50%
Number Dead [1]: 5
Percent Mortality [2]: 0%
Percent Survival [2]: 100%
Number Dead [2]: 0
Percent Mortality [3]: 0%
Percent Survival [3]: 100%
Number Dead [3]: 0
ED50 [4]: 1.8 mg/kg
ED50 (subcutaneously administered, immunocompetent mice challenged intraperitoneally with MSSA Smith strain): < 2.0 mg/kg

CC(C)CCCCCCCC/C=C\CC(=O)N[C@@H](CC(=O)O)C(=O)N[C@@H]1C(=O)N2CCCC[C@@H]2C(=O)N[C@@H]([C@H](C)C(=O)O)C(=O)N[C@@H](CC(=O)O)C(=O)NCC(=O)N[C@@H](CC(=O)O)C(=O)NCC(=O)N[C@H]([C@@H](C)NC(=O)[C@H](C)N)C(=O)N[C@@H](C(C)C)C(=O)N2CCC[C@H]2C(=O)N[C@@H]1C [IB-1275, NatC15-aspartocin(Dab^9-N-L-alanyl)]
ED50 [4]: 15.7 mg/kg

CC(C)CCCCCCCC/C=C\CC(=O)N[C@@H](CC(=O)O)C(=O)N[C@@H]1C(=O)N2CCCC[C@@H]2C(=O)N[C@@H]([C@H](C)C(=O)O)C(=O)N[C@@H](CC(=O)O)C(=O)NCC(=O)N[C@@H](CC(=O)O)C(=O)NCC(=O)N[C@H]([C@@H](C)NC(=O)[C@@H](C)N)C(=O)N[C@@H](C(C)C)C(=O)N2CCC[C@H]2C(=O)N[C@@H]1C [IB-1279, NatC15-aspartocin(Dab^9-N-D-alanyl)]
ED50 [4]: 6 mg/kg

CC(C)CCCCCCCC/C=C\CC(=O)N[C@@H](CC(=O)O)C(=O)N[C@@H]1C(=O)N2CCCC[C@@H]2C(=O)N[C@@H]([C@H](C)C(=O)O)C(=O)N[C@@H](CC(=O)O)C(=O)NCC(=O)N[C@@H](CC(=O)O)C(=O)NCC(=O)N[C@H]([C@@H](C)NC(=O)[C@@H](N)CO)C(=O)N[C@@H](C(C)C)C(=O)N2CCC[C@H]2C(=O)N[C@@H]1C [IB-1281, NatC15-aspartocin(Dab^9-N-L-seryl)]
ED50 [4]: 14.7 mg/kg
